Measured values taken from publication PMC5906745, “Silencing of Chemosensory Protein Gene NlugCSP8 by RNAi Induces Declining Behavioral Responses of Nilaparvata lugens” (Frontiers in Physiology, 2018).
Entries after “also recorded” stand apart in the source; their conditions may differ. Where two headings read alike, the source gives them in different places.

Legend:
[1] = target: NlugCSP8 (Nilaparvata lugens, UniProt B7TVH4); test: Fluorescence competitive ligand binding assay with 1-NPN probe
Protocol: The recombinant pET-30a/CSP8 expression plasmid was transformed into Escherichia coli BL21 (DE3) competent cells. After DNA sequencing, a single positive clone was grown in 10 mL Luria-Bertani (LB) medium containing kanamycin (50 μg/mL) with shaking overnight at 220 rpm and 37°C. The culture was diluted to 2 L LB medium (supplemented with 50 μg/mL kanamycin) and grown at 37°C with shaking at 220 rpm until the culture reached the optical density value of ~0.6–0.7 at 600 nm. The recombinant protein expression was induced by the addition of 2 mM IPTG (Isopropyl β-D-1-thiogalactopyranoside), followed by culturing for 4 h at 37°C. The bacterial cells were harvested by centrifugation (10,000 rpm, 10 min) and sonicated. The expressed protein presented in the supernatant as a soluble form. Then, NlugCSP8 purification was performed using a Ni-ion affinity chromatography column (GE Healthcare, Uppsala, Sweden). His-tag was removed from the recombinant protein with the addition of recombinant bovine enterokinase (EK) in the eluted fractions of protein, followed by 16 h incubation at 25°C. After running the digested protein back through the Ni-ion affinity chromatography column, the tag-free protein was obtained in the flow through fraction. Protein expression and purification steps were assessed by 15% SDS-PAGE (sodium dodecyl sulfate-polyacrylamide gel electrophoresis). Finally, purified protein was dialyzed in Tris buffer (pH 5.0) and (pH 7.4). The concentration of purified protein was determined prior to perform ligand-binding specificities of NlugCSP8 with 25 selected ligands at pH 5.0 and pH 7.4.
Fluorescence-based ligand binding assays were performed based on the method described by Sun X. et al. ([2016]). According to previous studies about the rice-specific volatiles (Fujii et al., [2010]; He et al., [2011]; Yang et al., [2014]; Zhang et al., [2014]), 25 potential ligands were selected for the fluorescence binding assays (Table 1). All the ligands used in this study were purchased from Sigma-Aldrich (St. Louis, MO, USA) and stored according to manufacturer instructions. The ligand binding affinity for various ligands was determined by using the 1-NPN (N-phenyl-1-naphthylamine) as a fluorescent probe. RF-5301PC fluorimeter (Shimadzu, Kyoto, Japan) was used for fluorescence binding assay at 25°C with 10 nm slit width and 1 cm light path quartz cuvette for emission and excitation. The 1-NPN/NlugCSP8 mixture was excited using an excitation wavelength of 337 nm, and the fluorescence intensity was recorded between 350 and 600 nm following an established protocol (Ban et al., [2002]). The 1-NPN and all the potential ligands were prepared in spectrophotometric-grade methanol. The binding constant for 1-NPN was measured by adding aliquots of 1 mM 1-NPN into a 2 μM solution of protein in 30 mM Tris-HCL at room temperature. […] For each test, fluorescence measurement was conducted after the reaction was incubated for 2 min at room temperature (Liu et al., [2015]). Three independent measurements were used to obtain the binding data. 1-NPN/NlugCSP8 dissociation constants (Kd) were calculated from Scatchard plots of the binding data using the Prism 5 software (GraphPad, La Jolla, CA, USA). The curves were linearized using the Scatchard plot program (Campanacci et al., [2001]). The dissociation constants of the competitors were determined by using the corresponding IC50-values according to the equation Ki = [IC50]/ (1+[1-NPN]/K1−NPN), where IC50 represents the concentration of ligand which decreases the fluorescence intensity of [1-NPN], [1-NPN] is the free concentration of 1-NPN and K1−NPN is the dissociation constant of the NlugCSP8/1-NPN complex (Ban et al., [2003]; Tian and Zhang, [2016]). For the reader's convenience, data were recalculated as 1/ki × 1,000, for which a larger value designates a stronger ligand binding affinity.

[2] = tested on: BPH; set-up: method as in Obata et al., 1983; conditions: volatile isolated from rice plants; ref Obata et al., 1983; cited from earlier work
[3] = tested on: NlugCSP7; set-up: method as in Yang et al., 2014; conditions: ref Yang et al., 2014; cited from earlier work
[4] = tested on: Nilaparvata lugens; test: H-tube olfactometer behavioral assay; type: in vivo; conditions: macropterous adults, vs liquid paraffin
Protocol: BPH behavior responses to different ligands were tested in an H-tube olfactometer similar to which previously used by Yi et al. ([2018]) in our laboratory. The H-tube olfactometer mainly consists of two glass tubes (arms) with gauze at its top end. These two glass tubes were connected by another tube (5 cm in diameter, 20 cm long with a hole of 1 cm in the middle for releasing BPH). Twenty macropterous (10 from each sex) BPH adults were introduced into the H-tube and the number of BPH was counted at 30 min after their introduction. Liquid paraffin was used as in control arm. Rubber septa were absorbed in the liquid paraffin and solutions of the odor molecules to be tested (liquid paraffin+ different concentration of tested volatile) and placed at room temperature. After 24 h, one rubber septa from each control and tested volatile was put in each glass arm. After one replication, rubber septa were changed and three treatments (1, 10, and 100 μl/mL) of tested volatiles against macropterous adults were tested in eight replications. After four replications, the H-tube olfactometer was washed with 75% alcohol and the liquid paraffin rubber septa were placed in another arm to complete the other four replications. The impact of NlugCSP8-dsRNA on the preference of N. lugens was also tested by H-tube olfactometer assays. Corresponding control experiments without dsRNA injection were performed to investigate whether the preference of N. lugens was affected by volatile concentration change. Three treatments of BPH (NlugCSP8-dsRNA injected, GFP-dsRNA injected, and without injection) were tested in four replications. As in case of dsRNA injected insects, the concentration of volatiles that have highly significant attractive results on non-injected insects used for dsCSP8 and dsGFP injected insects. In order to evaluate the best RNAi effect, mRNA levels of NlugCSP8-dsRNA injected insects were determined and compared with the GFP-dsRNA-injected and non-injected insects, prior to H-tube olfactometer bioassay. Based on the findings of previous step, we re-inject the BPH and the individuals with the best post-injection RNAi effect after 7-days, were used in the H-tube olfactometer bioassay. Bioassays were performed under controlled conditions at 26 ± 2°C and 75 ± 5% relative humidity.

[5] = tested on: Nilaparvata lugens; test: H-tube olfactometer assay after RNAi (dsRNA-injected BPH); type: in vivo; conditions: 10 μl/mL (nerolidol), 100 μl/mL (hexanal); compared with controls
Protocol: BPH behavior responses to different ligands were tested in an H-tube olfactometer similar to which previously used by Yi et al. ([2018]) in our laboratory. The H-tube olfactometer mainly consists of two glass tubes (arms) with gauze at its top end. These two glass tubes were connected by another tube (5 cm in diameter, 20 cm long with a hole of 1 cm in the middle for releasing BPH). Twenty macropterous (10 from each sex) BPH adults were introduced into the H-tube and the number of BPH was counted at 30 min after their introduction. Liquid paraffin was used as in control arm. Rubber septa were absorbed in the liquid paraffin and solutions of the odor molecules to be tested (liquid paraffin+ different concentration of tested volatile) and placed at room temperature. After 24 h, one rubber septa from each control and tested volatile was put in each glass arm. After one replication, rubber septa were changed and three treatments (1, 10, and 100 μl/mL) of tested volatiles against macropterous adults were tested in eight replications. […] In order to evaluate the best RNAi effect, mRNA levels of NlugCSP8-dsRNA injected insects were determined and compared with the GFP-dsRNA-injected and non-injected insects, prior to H-tube olfactometer bioassay. […]

[6] = tested on: BPH; set-up: method as in Hernandez et al., 1989; Youn, 2002; conditions: BPH and some other Hemiptera; ref Hernandez et al., 1989; Youn, 2002; cited from earlier work
[7] = pH 5.0, calculated from IC50, read-out: Ki
[8] = pH 7.4, calculated from IC50, read-out: Ki
[9] = Ki, pH 5.0, calculated from IC50
[10] = Ki, pH 7.4, calculated from IC50

NlugCSP8, sequence (B7TVH4 entry or part of it): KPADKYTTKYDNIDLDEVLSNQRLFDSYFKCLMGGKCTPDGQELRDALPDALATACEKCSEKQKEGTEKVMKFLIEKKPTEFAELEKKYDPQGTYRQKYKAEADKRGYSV

Ki [1, 7] [µM] | IC50 ([1]; pH 5.0, read-out: IC50) [µM] | Ki [1, 8] [µM] | IC50 ([1]; pH 7.4, read-out: IC50) [µM] | Compound | IC50 ([1]; IC50, pH 5.0) [µM] | IC50 ([1]; IC50, pH 7.4) [µM] | Ki [1, 9] [µM] | Ki [1, 10] [µM] | other results
24.6 | 28.3 | 14.3 | 17.2 | CCCCCCCCCCCCCCCCCCC [Nonadecane] |  |  |  |  | 
19.2 | 22.1 | 19.4 | 23.3 | C=CC(O)CCCCC (stereo not shown) [1-Octen-3-ol] |  |  |  |  | 
10.4 | 12 | 12.5 | 15 | CCCCCCCCCCCC(C)=O [2-Tridecanone] |  |  |  |  | attraction of BPH [2]: able to attract BPH; binding affinity with NlugCSP7 [3]: relatively weak binding affinity
 |  |  |  | COC(=O)c1ccccc1 [Methyl benzoate] | 17.8 | 23.6 | 15.5 | 19.6 | 
 |  |  |  | CCC/C=C/C=O [Trans-2-hexenal] | 11.6 | 28 | < 10 | 23.3 | behavioral response of BPH ([4]; concentration not given): significant aversion
 |  |  |  | CC1=CC[C@@H](C(C)(C)O)CC1 [α-Terpineol] | 15.5 | 24.1 | 13.5 | 20.1 | 
34.8 | 39.9 | 27 | 32.4 | CC1=CCC2C(C1)C2(C)C (single isomer, unassigned; (+)) [(+)-3-Carene] |  |  |  |  | 
8.38 | 9.61 | 10 | 12 | C=CC(C)(O)CCC=C(C)CCC=C(C)C (mixture of isomers) [Nerolidol] |  |  |  |  | binding affinity with NlugCSP7 [3]: weak affinities; behavioral response of BPH ([4]; 10 μl/mL): significant attraction; behavior response of dsCSP8-injected (RNAi) BPH to attractant [5]: attraction activity was completely lost and lost
 |  |  |  | CCCCCC=O [Hexanal] | 11 | 17.3 | 9.56 | 14.4 | Electroantennogram response [6]: high Electroantennogram response; binding affinity with NlugCSP7 [3]: weak affinities; behavioral response of BPH ([4]; 1 μl/mL): repellency; behavioral response of BPH ([4]; 10 μl/mL): attraction became weakened; behavioral response of BPH ([4]; 100 μl/mL): strongly behaved as attractant; behavior response of dsCSP8-injected (RNAi) BPH to attractant [5]: reduced significantly; also recorded: significantly inhibited
 |  |  |  | CC1=CCC(=C(C)C)CC1 [Terpinolene] | 31.2 | 25.6 | 27.2 | 21.3 | 
28.4 | 32.6 | 12.2 | 14.6 | CCCCCCCCCCCC=O [Dodecyl aldehyde] |  |  |  |  | 
 |  |  |  | C=CC(C)(O)CCC=C(C)C (stereo not shown) [Linalool] | 36.9 | 23.4 | 32.2 | 19.5 | 

Compound | Ki [1, 7] [µM] | IC50 ([1]; pH 5.0, read-out: IC50) [µM] | Ki [1, 8] [µM] | IC50 ([1]; pH 7.4, read-out: IC50) [µM] | IC50 ([1]; IC50, pH 5.0) [µM] | IC50 ([1]; IC50, pH 7.4) [µM] | Ki [1, 9] [µM] | Ki [1, 10] [µM] | other results
C=C(C)[C@H]1CC=C(C)CC1 [R-(+)-limonene] | 12.6 | 14.4 | 13.2 | 15.9 |  |  |  |  | 
